Reference: ChEMBL document CHEMBL1201862, “PubChem BioAssay data set” (2004)
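Following 48 hours of exposure in 96-well plates, responses at five concentrations were used to interpolate endpoints linearly. GI50 marks 50% less growth.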 Activity calls are given as the source filed them. Rule as the data show it: active = GI50 up to about 1.1 µM and inactive = higher.

Columns and labels:
Assay in all cases: DTP human tumour cell line panel, 48 h
786-0 = tested on: 786-0
ACHN = tested on: ACHN
CAKI-1 = tested on: CAKI-1
HCT-116 = tested on: HCT-116
HOP-62 = tested on: HOP-62
HOP-92 = tested on: HOP-92
IGROV-1 = tested on: IGROV-1
MOLT-4 = tested on: MOLT-4
NCI-H226 = tested on: NCI-H226
NCI-H23 = tested on: NCI-H23
NCI-H460 = tested on: NCI-H460
NCI-H522 = tested on: NCI-H522
SF-268 = tested on: SF-268
SF-295 = tested on: SF-295
SK-MEL-2 = tested on: SK-MEL-2
SN12C = tested on: SN12C
TK-10 = tested on: TK-10
U-251 = tested on: U-251
UO-31 = tested on: UO-31

Measured: GI50

C=C1C(=O)C23C(O)CC4C5(C)CCCC4(C(O)OC5)C2C(OC(C)=O)CC1C3O (configuration not stated)
inactive: 786-0 6.31 µM | ACHN 12.2 µM | CAKI-1 4.95 µM | HCT-116 5.11 µM | HOP-62 17.5 µM | HOP-92 3.52 µM | IGROV-1 19.4 µM | MOLT-4 3.66 µM | NCI-H226 19.5 µM | NCI-H23 5.41 µM | NCI-H460 4.97 µM | NCI-H522 1.58 µM | SF-268 13.3 µM | SF-295 21.5 µM | SK-MEL-2 13.8 µM | SN12C 10.6 µM | TK-10 10.9 µM | U-251 16.6 µM | UO-31 34.5 µM

COc1ccc2c(c1)[n+]([O-])c(-c1c(Cl)cccc1Cl)c(N)[n+]2[O-]
inactive: 786-0 56.5 µM | ACHN 62.4 µM | CAKI-1 50.5 µM | HOP-92 45.6 µM | IGROV-1 47.4 µM | MOLT-4 75.3 µM | NCI-H226 79.6 µM | NCI-H23 25.1 µM | NCI-H460 44.4 µM | NCI-H522 > 10 µM | SF-268 40.6 µM | SF-295 61 µM | SK-MEL-2 26 µM | SN12C 46.1 µM | TK-10 > 100 µM | U-251 37.9 µM | UO-31 85.3 µM

O=C(CCN(C(=O)O)S(=O)(=O)c1ccc(NC(=O)c2ccccc2)cc1)NC1CCCCC1
inactive: 786-0 12.6 µM | ACHN > 100 µM | CAKI-1 > 100 µM | HCT-116 > 100 µM | HOP-62 > 100 µM | HOP-92 > 100 µM | IGROV-1 > 100 µM | MOLT-4 21.4 µM | NCI-H226 > 100 µM | NCI-H23 > 100 µM | NCI-H460 42.4 µM | NCI-H522 > 100 µM | SF-268 > 100 µM | SF-295 > 100 µM | SK-MEL-2 > 100 µM | SN12C > 100 µM | TK-10 > 100 µM | U-251 36.3 µM | UO-31 > 100 µM

CN(/N=C/c1cccc2cccnc12)c1ccccc1
inactive: 786-0 55.3 µM | ACHN 99.5 µM | CAKI-1 7.85 µM | HOP-62 76.2 µM | HOP-92 51.9 µM | IGROV-1 73.6 µM | MOLT-4 > 100 µM | NCI-H226 > 100 µM | NCI-H23 59.8 µM | NCI-H460 79.6 µM | NCI-H522 > 100 µM | SF-268 > 100 µM | SF-295 99.3 µM | SK-MEL-2 41.1 µM | SN12C > 100 µM | TK-10 71.1 µM | U-251 > 100 µM | UO-31 > 100 µM

CCOC(=O)C1=C(N)N(c2ccccc2)/C(=C(/C#N)c2nc3ccccc3[nH]2)S1
inactive: 786-0 > 100 µM | ACHN > 100 µM | CAKI-1 > 100 µM | HCT-116 > 100 µM | HOP-62 > 100 µM | HOP-92 > 100 µM | IGROV-1 > 100 µM | MOLT-4 > 100 µM | NCI-H226 > 100 µM | NCI-H23 > 100 µM | NCI-H460 43 µM | NCI-H522 > 100 µM | SF-268 80.9 µM | SF-295 > 100 µM | SK-MEL-2 > 100 µM | SN12C > 100 µM | TK-10 > 100 µM | U-251 > 100 µM | UO-31 > 100 µM

CCNC(C)Cc1ccccc1 (configuration not stated)
inactive: 786-0 > 100 µM | ACHN > 100 µM | CAKI-1 > 100 µM | HCT-116 > 100 µM | HOP-62 > 100 µM | HOP-92 > 100 µM | IGROV-1 > 100 µM | NCI-H226 > 100 µM | NCI-H23 > 100 µM | NCI-H460 > 100 µM | NCI-H522 > 100 µM | SF-268 > 100 µM | SF-295 > 100 µM | SK-MEL-2 > 100 µM | SN12C > 100 µM | TK-10 > 100 µM | U-251 > 100 µM | UO-31 > 100 µM

O=C1CCSSCCC(=O)NCCN1
inactive: 786-0 > 100 µM | ACHN > 100 µM | CAKI-1 > 100 µM | HCT-116 > 100 µM | HOP-62 > 100 µM | HOP-92 > 100 µM | IGROV-1 > 100 µM | MOLT-4 > 100 µM | NCI-H226 > 100 µM | NCI-H23 > 100 µM | NCI-H460 > 100 µM | NCI-H522 > 100 µM | SF-268 > 100 µM | SF-295 > 100 µM | SK-MEL-2 > 100 µM | SN12C > 100 µM | TK-10 > 100 µM | U-251 > 100 µM | UO-31 > 100 µM

CN1Cc2c(nc(-c3ccccc3)c[n+]2[O-])N(C)C1
inactive: 786-0 > 100 µM | ACHN > 100 µM | CAKI-1 > 100 µM | HOP-62 > 100 µM | HOP-92 > 100 µM | IGROV-1 > 100 µM | MOLT-4 > 100 µM | NCI-H226 > 100 µM | NCI-H23 > 100 µM | NCI-H460 > 100 µM | NCI-H522 > 100 µM | SF-268 > 100 µM | SF-295 > 100 µM | SK-MEL-2 > 100 µM | SN12C > 100 µM | TK-10 > 100 µM | U-251 > 100 µM | UO-31 > 100 µM
